Like-named read-outs stand apart in the source and are kept apart here.
Molecular target: Nav 1.7 (Homo sapiens (Human), UniProt Q15858)
Test: Nav 1.7 in vitro PX assay (PatchXpress whole cell voltage clamp);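 note: holding potential set for 20 to 50% inactivation, sodium current evoked by a 20 ms step to −10 mV, peak current inhibition read after compound exposure, 3–5 cells per concentration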
Type: cell-based
[1] = in-vitro Nav 1.7 PX (PatchXpress)
[2] = HEK 293 cells stably transfected with human Nav1.7, PatchXpress, partially inactivated state

Chain of Nav 1.7 (Q15858 whole entry): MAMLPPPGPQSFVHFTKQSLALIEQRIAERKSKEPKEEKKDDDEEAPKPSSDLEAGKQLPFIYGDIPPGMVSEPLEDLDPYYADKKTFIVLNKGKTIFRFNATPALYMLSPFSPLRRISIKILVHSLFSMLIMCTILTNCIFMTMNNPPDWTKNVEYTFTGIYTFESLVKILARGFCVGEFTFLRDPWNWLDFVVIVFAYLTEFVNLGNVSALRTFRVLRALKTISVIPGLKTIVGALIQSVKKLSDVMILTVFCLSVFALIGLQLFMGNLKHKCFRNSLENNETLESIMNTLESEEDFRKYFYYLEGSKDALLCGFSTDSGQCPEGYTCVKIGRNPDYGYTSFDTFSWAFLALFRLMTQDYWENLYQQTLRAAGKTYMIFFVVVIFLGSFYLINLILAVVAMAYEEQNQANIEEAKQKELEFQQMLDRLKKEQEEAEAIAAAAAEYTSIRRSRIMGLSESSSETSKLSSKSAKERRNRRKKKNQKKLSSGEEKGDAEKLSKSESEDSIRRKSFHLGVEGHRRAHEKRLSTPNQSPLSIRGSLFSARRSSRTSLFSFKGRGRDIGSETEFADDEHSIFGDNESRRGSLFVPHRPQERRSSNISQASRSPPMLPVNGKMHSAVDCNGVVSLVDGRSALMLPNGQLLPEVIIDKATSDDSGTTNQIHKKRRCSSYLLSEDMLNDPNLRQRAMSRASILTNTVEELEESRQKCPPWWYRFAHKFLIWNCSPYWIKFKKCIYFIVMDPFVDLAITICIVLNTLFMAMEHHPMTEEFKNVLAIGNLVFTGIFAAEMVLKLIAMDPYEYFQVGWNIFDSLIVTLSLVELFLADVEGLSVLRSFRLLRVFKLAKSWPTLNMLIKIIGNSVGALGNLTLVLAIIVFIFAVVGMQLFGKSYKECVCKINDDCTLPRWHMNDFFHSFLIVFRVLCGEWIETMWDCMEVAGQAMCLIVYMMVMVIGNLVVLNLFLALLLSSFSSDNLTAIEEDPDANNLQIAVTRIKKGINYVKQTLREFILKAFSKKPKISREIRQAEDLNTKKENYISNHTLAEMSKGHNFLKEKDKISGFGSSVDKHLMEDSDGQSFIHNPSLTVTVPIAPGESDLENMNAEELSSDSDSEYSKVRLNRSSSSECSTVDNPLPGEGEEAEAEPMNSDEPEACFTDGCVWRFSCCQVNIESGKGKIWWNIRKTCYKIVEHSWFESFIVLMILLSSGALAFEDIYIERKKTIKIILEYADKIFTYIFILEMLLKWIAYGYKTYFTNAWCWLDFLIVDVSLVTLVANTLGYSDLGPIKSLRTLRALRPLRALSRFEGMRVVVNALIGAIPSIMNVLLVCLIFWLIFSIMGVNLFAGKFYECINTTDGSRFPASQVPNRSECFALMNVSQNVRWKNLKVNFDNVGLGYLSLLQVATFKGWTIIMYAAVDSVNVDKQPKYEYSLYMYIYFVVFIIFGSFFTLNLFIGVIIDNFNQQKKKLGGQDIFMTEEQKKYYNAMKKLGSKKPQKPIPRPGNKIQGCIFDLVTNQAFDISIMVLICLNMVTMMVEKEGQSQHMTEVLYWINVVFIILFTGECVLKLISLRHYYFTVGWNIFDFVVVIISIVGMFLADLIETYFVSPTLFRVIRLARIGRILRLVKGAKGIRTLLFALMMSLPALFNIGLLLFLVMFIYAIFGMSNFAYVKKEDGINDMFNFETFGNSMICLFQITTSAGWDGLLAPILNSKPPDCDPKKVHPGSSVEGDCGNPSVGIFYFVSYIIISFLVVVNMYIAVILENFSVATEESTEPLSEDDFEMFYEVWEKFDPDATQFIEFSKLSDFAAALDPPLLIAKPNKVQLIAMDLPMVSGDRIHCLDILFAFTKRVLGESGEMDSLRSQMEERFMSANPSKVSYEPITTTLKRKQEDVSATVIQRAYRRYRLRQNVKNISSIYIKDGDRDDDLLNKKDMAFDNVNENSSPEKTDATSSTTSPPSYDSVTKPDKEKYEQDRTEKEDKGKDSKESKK

## COc1cc(-c2cc(C)cc(F)c2)c(F)cc1-c1ncnc2cc(S(=O)(=O)Nc3ccon3)ccc12 [Example 301, 4-(2,3′-difluoro-5-methoxy-5′-methyl-4-biphenylyl)-N-3-isoxazolyl-7-quinazolinesulfonamide]
[1]
  IC50: 32 nM

## COc1cc(-c2cc(F)cc(Cl)c2)c(F)cc1-c1ncnc2cc(S(=O)(=O)Nc3ccon3)ccc12 [Example 302, 4-(3′-chloro-2,5′-difluoro-5-methoxy-4-biphenylyl)-N-3-isoxazolyl-7-quinazolinesulfonamide]
[1]
  IC50: 22 nM

## COc1cc(-c2ccc(OCC(F)(F)F)nc2)ccc1-c1nccc2cc(S(=O)(=O)Nc3ccon3)ccc12 [Example 303, N-3-isoxazolyl-1-(2-methoxy-4-(6-(2,2,2-trifluoroethoxy)-3-pyridinyl)phenyl)-6-isoquinolinesulfonamide]
[1]
  IC50: 480 nM

## CCOc1ccc(-c2cc(OC)c(-c3ncnc4cc(S(=O)(=O)Nc5ccon5)ccc34)cc2F)cc1C [Example 304, 4-(4′-ethoxy-2-fluoro-5-methoxy-3′-methyl-4-biphenylyl)-N-3-isoxazolyl-7-quinazolinesulfonamide]
[1]
  IC50: 610 nM

## COc1cc(F)cc(-c2cc(OC)c(-c3nccc4cc(S(=O)(=O)Nc5ccon5)ccc34)cc2F)c1 [Example 305, 1-(2,3′-difluoro-5,5′-dimethoxy-4-biphenylyl)-N-3-isoxazolyl-6-isoquinolinesulfonamide]
[1]
  IC50: 40 nM

## COc1cc(-c2cc(F)cc(C3CC3)c2)c(C)cc1-c1ncnc2cc(S(=O)(=O)Nc3ccon3)ccc12 [Example 306, 4-(3′-cyclopropyl-5′-fluoro-5-methoxy-2-methyl-4-biphenylyl)-N-3-isoxazolyl-7-quinazolinesulfonamide]
[1]
  IC50: 61 nM

## COc1cc(-c2cc(C)ccc2F)c(C)cc1-c1ncnc2cc(S(=O)(=O)Nc3ccon3)ccc12 [Example 307, 4-(2′-fluoro-5-methoxy-2,5′-dimethyl-4-biphenylyl)-N-3-isoxazolyl-7-quinazolinesulfonamide]
[1]
  IC50: 113 nM

## COc1cc(-c2cc(Cl)ccc2F)c(C)cc1-c1ncnc2cc(S(=O)(=O)Nc3ccon3)ccc12 [Example 308, 4-(5′-chloro-2′-fluoro-5-methoxy-2-methyl-4-biphenylyl)-N-3-isoxazolyl-7-quinazolinesulfonamide]
[1]
  IC50: 56 nM

## COc1cc(-c2cc(C)cc(F)c2)c(Cl)cc1-c1ncnc2cc(S(=O)(=O)Nc3ccon3)ccc12 [Example 309, 4-(2-chloro-3′-fluoro-5-methoxy-5′-methyl-4-biphenylyl)-N-3-isoxazolyl-7-quinazolinesulfonamide]
[1]
  IC50: 40 nM

## COc1cc(-c2cc(F)cc(Cl)c2)c(Cl)cc1-c1ncnc2cc(S(=O)(=O)Nc3ccon3)ccc12 [Example 310, 4-(2,3′-dichloro-5′-fluoro-5-methoxy-4-biphenylyl)-N-3-isoxazolyl-7-quinazolinesulfonamide]
[1]
  IC50: 45 nM

## COc1cc(-c2cc(C)cc(Cl)c2)c(Cl)cc1-c1ncnc2cc(S(=O)(=O)Nc3ccon3)ccc12 [Example 311, 4-(2,3′-dichloro-5-methoxy-5′-methyl-4-biphenylyl)-N-3-isoxazolyl-7-quinazolinesulfonamide]
[1]
  IC50: 40 nM

## COc1cc(-c2cccc(Cl)c2)c(F)cc1-c1ncnc2cc(S(=O)(=O)Nc3ncccn3)ccc12 [Example 315, 4-(3′-chloro-2-fluoro-5-methoxy-4-biphenylyl)-N-2-pyrimidinyl-7-quinazolinesulfonamide]
[2]
  IC50: 48 nM

## COc1cc(F)cc(-c2cc(OC)c(-c3nccc4cc(S(=O)(=O)Nc5ccon5)ccc34)cc2F)c1 [Example 316, 1-(2,3′-difluoro-5,5′-dimethoxy-4-biphenylyl)-N-3-isoxazolyl-6-isoquinolinesulfonamide]
[2]
  IC50: 40 nM

## COc1cc(-c2cccc(F)c2)c(Cl)cc1-c1cn(C)c(=O)c2cc(S(=O)(=O)Nc3ccon3)ccc12 [Example 328, 4-(2-chloro-3′-fluoro-5-methoxy-[1,1′-biphenyl]-4-yl)-N-(isoxazol-3-yl)-2-methyl-1-oxo-1,2-dihydroisoquinoline-7-sulfonamide trifluoromethanesulfonate]
[2]
  IC50: 68 nM

## COc1cc(-c2ccc(F)c(Cl)c2)c(Cl)cc1-c1ncnc2cc(S(=O)(=O)Nc3ncccn3)ccc12 [Example 329, 4-(2,3′-dichloro-4′-fluoro-5-methoxy-[1,1′-biphenyl]-4-yl)-N-(pyrimidin-2-yl)quinazoline-7-sulfonamide]
  IC50: 43 nM

## COc1cc(-c2cccc(F)c2)c(Cl)cc1-c1c(N)cnc2cc(S(=O)(=O)Nc3ccon3)ccc12 [Example 336, 3-amino-4-(2-chloro-3′-fluoro-5-methoxy-[1,1′-biphenyl]-4-yl)-N-(isoxazol-3-yl)quinoline-7-sulfonamide]
[2]
  IC50: 35 nM

## COc1cc(-c2cccc(Cl)c2)c(F)cc1-c1c[nH]c(=O)c2cc(S(=O)(=O)Nc3ccon3)ccc12 [Example 343, 4-(3′-chloro-2-fluoro-5-methoxy-[1,1′-biphenyl]-4-yl)-N-(isoxazol-3-yl)-1-oxo-1,2-dihydroisoquinoline-7-sulfonamide]
[2]
  IC50: 163 nM

## COc1cc(-c2cccc(Cl)c2)c(F)cc1-c1cn(C)c(=O)c2cc(S(=O)(=O)Nc3ccon3)ccc12 [Example 344, 4-(3′-chloro-2-fluoro-5-methoxy-[1,1′-biphenyl]-4-yl)-N-(isoxazol-3-yl)-2-methyl-1-oxo-1,2-dihydroisoquinoline-7-sulfonamide]
[2]
  IC50: 49 nM

## COc1cc(-c2ccc(F)c(Cl)c2)c(C)cc1-c1ncnc2cc(S(=O)(=O)Nc3ncccn3)ccc12 [Example 345, 4-(3′-chloro-4′-fluoro-5-methoxy-2-methyl-[1,1′-biphenyl]-4-yl)-N-(pyrimidin-2-yl)quinazoline-7-sulfonamide]
[2]
  IC50: 78 nM

## COc1cc(-c2cccc(F)c2)c(Cl)cc1-c1ncnc2cc(S(=O)(=O)Nc3ccsn3)ccc12 [Example 361, 4-(2-chloro-3′-fluoro-5-methoxy-[1,1′-biphenyl]-4-yl)-N-(isothiazol-3-yl)quinazoline-7-sulfonamide]
[2]
  IC50: 369 nM

## COc1cc(-c2cc(F)cc(C(F)F)c2)c(F)cc1-c1nccc2cc(S(=O)(=O)Nc3ccon3)ccc12 [Example 362, 1-(3′-(difluoromethyl)-2,5′-difluoro-5-methoxy-[1,1′-biphenyl]-4-yl)-N-(isoxazol-3-yl)isoquinoline-6-sulfonamide]
[2]
  IC50: 52 nM

## COc1cc(-c2cccc(C(F)(F)F)c2)c(C#N)cc1-c1nccc2cc(S(=O)(=O)Nc3ncccn3)ccc12 [Example 373, 1-(2-cyano-5-methoxy-3′-(trifluoromethyl)-[1,1′-biphenyl]-4-yl)-N-(pyrimidin-2-yl)isoquinoline-6-sulfonamide]
  IC50: 57 nM

## COc1cc(-c2cccc(C(F)(F)F)c2)c(C#N)cc1-c1nccc2cc(S(=O)(=O)Nc3ncc(F)cn3)ccc12 [Example 374, 1-(2-Cyano-5-methoxy-3′-(trifluoromethyl)-[1,1′-biphenyl]-4-yl)-N-(5-fluoropyrimidin-2-yl)isoquinoline-6-sulfonamide]
[2]
  IC50: 94 nM

## COc1cc(-c2cccc(Cl)c2)c(F)cc1-c1ncnc2cc(S(=O)(=O)Nc3ncon3)ccc12 [Example 376, 4-(3′-chloro-2-fluoro-5-methoxy-[1,1′-biphenyl]-4-yl)-N-(1,2,4-oxadiazol-3-yl)quinazoline-7-sulfonamide]
[2]
  IC50: 28 nM
